Assays:
Experiment in all cases: competitive radioligand binding, recombinant cells
Type in all cases: cell-based
α1B = molecular target: T1, α1B (Homo sapiens, UniProt P35368)
T1 sequence (P35368 1-520): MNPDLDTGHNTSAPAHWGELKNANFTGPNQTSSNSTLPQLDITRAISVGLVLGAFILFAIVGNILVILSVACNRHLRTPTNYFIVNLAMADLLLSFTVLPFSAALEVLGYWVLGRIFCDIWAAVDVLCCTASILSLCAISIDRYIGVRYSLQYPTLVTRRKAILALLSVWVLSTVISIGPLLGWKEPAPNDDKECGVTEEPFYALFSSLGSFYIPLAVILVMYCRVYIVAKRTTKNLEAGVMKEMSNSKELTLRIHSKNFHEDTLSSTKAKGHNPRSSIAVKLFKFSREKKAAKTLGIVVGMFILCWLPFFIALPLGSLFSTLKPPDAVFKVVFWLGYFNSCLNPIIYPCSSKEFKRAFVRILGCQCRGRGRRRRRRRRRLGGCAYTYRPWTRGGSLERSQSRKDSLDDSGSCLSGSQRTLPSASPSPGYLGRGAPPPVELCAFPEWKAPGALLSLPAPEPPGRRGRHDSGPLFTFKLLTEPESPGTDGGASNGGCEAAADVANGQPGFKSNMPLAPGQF

α1D = molecular target: T2, α1D (Homo sapiens, UniProt P25100)
T2 sequence (P25100 1-572): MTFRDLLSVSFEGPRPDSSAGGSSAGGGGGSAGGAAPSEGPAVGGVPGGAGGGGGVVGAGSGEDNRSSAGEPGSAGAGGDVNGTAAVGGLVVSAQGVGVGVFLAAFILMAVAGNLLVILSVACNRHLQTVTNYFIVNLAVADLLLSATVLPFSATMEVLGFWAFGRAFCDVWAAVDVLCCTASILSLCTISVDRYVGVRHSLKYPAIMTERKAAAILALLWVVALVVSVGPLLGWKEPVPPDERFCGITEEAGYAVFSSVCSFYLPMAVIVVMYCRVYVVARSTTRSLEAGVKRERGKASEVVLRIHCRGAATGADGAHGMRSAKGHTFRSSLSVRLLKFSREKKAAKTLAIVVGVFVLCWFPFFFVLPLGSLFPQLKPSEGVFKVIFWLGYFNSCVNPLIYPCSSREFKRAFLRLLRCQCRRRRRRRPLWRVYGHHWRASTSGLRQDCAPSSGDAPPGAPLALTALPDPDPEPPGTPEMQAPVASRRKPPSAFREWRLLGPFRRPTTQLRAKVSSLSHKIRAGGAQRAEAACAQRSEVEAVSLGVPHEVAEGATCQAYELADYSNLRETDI

σ1 = σ1 (Homo sapiens, UniProt Q99720)
Sequence of σ1 (Q99720 whole entry): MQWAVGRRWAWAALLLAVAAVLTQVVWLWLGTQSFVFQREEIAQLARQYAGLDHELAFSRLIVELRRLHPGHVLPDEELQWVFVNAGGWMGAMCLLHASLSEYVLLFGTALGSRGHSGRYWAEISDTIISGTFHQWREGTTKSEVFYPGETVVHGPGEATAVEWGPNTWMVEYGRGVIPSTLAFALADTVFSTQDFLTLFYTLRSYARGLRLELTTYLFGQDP

5-HT4 = 5-HT4 (Homo sapiens, UniProt Q13639)
Sequence of 5-HT4 (Q13639 whole entry): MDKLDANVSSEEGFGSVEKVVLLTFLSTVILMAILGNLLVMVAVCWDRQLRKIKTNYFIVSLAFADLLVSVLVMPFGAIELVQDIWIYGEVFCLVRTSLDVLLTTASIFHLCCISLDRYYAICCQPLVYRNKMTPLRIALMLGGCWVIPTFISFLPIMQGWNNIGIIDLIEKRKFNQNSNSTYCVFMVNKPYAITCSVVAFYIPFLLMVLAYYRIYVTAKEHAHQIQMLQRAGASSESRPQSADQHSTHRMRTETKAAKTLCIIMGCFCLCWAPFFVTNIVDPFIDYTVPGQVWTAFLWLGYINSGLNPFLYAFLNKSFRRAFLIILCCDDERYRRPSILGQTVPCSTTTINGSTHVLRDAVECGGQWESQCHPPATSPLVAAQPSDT

O=c1n(CCCN2CCN(c3cccc(Cl)c3)CC2)nc2ccccn12 [trazodone]
Ki (α1B): 15 nM
Ki (α1D): 27 nM
Ki (σ1): 3980 nM
Ki (5-HT4): 10000 nM
